Assay results taken from patent US10144742B2 (Millennium Pharmaceuticals, Inc., priority 2014, dated 2018).

Tests used:
PC3 cells = assay: PC3 growth inhibition (Cell-titer glo, 72 hours); assay type: cell-based; conditions: Homo sapiens, PC-3; compound concentration 1.667 μM; PC3 cells, 72 hours, Cell-titer glo; read-out: Percent Inhibition (PC3 growth inhibition)
In short: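 Compounds in AIM serum-free medium were applied for 72 h at 37 °C, 5% CO2 to PC3 cells plated overnight from RPMI1640 culture. Luminescence after 10 min CellTiter-Glo, normalised to DMSO, gave % viability at 1 μM or 1.667 μM, or GI50/LD50.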

hNAMPT protein = hNAMPT protein (Homo sapiens (Human), UniProt P43490); assay: NAMPT enzyme assay (TR-FRET/HTRF, BodiPY ligand, anti 6His-Tb); assay type: binding; conditions: for IC50: NAMPT IC50 range class, read-out: IC50; for inhibition at 1 µM: compound concentration 1 μM, read-out: Percent Inhibition
In short: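 Compound or DMSO was incubated for 1 h at room temperature, protected from light, with BodiPY ligand and hNAMPT labelled by terbium anti-6His antibody. The 520 nm to 486 nm emission ratio after 320 nm excitation gave inhibition versus vehicle, from which concentration-response curves yielded IC50.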

Chain of hNAMPT protein (P43490 whole entry): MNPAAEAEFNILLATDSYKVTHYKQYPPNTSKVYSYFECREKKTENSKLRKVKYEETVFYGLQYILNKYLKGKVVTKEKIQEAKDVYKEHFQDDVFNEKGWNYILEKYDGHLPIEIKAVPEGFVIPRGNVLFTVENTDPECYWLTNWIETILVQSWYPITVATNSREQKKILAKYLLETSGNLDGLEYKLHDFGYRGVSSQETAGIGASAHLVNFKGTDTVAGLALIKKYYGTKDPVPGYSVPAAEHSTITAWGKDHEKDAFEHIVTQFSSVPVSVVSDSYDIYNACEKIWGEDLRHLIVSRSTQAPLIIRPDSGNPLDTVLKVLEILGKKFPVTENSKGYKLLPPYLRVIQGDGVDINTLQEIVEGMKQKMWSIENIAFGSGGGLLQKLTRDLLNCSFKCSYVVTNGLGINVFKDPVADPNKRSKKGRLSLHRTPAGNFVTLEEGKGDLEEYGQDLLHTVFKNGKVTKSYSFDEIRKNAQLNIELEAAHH

| SMILES | inhibition at 1.667 µM (PC3 cells) | IC50 (hNAMPT protein) | inhibition at 1 µM (hNAMPT protein) |
| --- | --- | --- | --- |
| CCc1nc2ccc(C(=O)NCCCc3ncc[nH]3)cc2nc1-c1ccc(F)cc1 [Compound I-307, 2-ethyl-3-(4-fluorophenyl)-N-[3-(1H-imidazol-2-yl)propyl]quinoxaline-6-carboxamide] | 4% | 100 to 500 nM | 73% |
| NS(=O)(=O)c1cccc(-c2nc3cc(C(=O)NCCCc4ncc[nH]4)ccc3nc2-c2ccc(F)cc2)c1 [Compound I-308, 2-(4-fluorophenyl)-N-[3-(1H-imidazol-2-yl)propyl]-3-(3-sulfamoylphenyl)quinoxaline-6-carboxamide] | 4% | 100 to 500 nM | 89% |
| Cc1cc(-c2nc3cc(C(=O)NCCCc4ncc[nH]4)ccc3nc2-c2ccc(F)cc2)cnc1Cl [Compound I-309, 3-(6-chloro-5-methylpyridin-3-yl)-2-(4-fluorophenyl)-N-[3-(1H-imidazol-2-yl)propyl]quinoxaline-6-carboxamide] | 3% | 100 to 500 nM | 86% |
| CC(C)Oc1nc2ccc(C(=O)NCCCc3nnc[nH]3)cc2nc1-c1ccc(F)cc1 [Compound I-310, 3-(4-fluorophenyl)-2-isopropoxy-N-[3-(4H-1,2,4-triazol-3-yl)propyl]quinoxaline-6-carboxamide] | 4% | 500 to 1000 nM | 62% |
| Cc1ccc(-c2nc3cc(C(=O)NCCCc4ncc[nH]4)ccc3nc2-c2ccc(F)cc2)cc1F [Compound I-311, 3-(3-fluoro-4-methylphenyl)-2-(4-fluorophenyl)-N-[3-(1H-imidazol-2-yl)propyl]quinoxaline-6-carboxamide] | 2% | 100 to 500 nM | 76% |
| O=C(NCCCc1ncc[nH]1)c1ccc2nc(-c3ccc(F)cc3)c(-c3cccc(Cl)c3F)nc2c1 [Compound I-312, 3-(3-chloro-2-fluorophenyl)-2-(4-fluorophenyl)-N-[3-(1H-imidazol-2-yl)propyl]quinoxaline-6-carboxamide] | 2% | < 100 nM | 94% |
| O=C(NCCCc1ncc[nH]1)c1ccc2nc(-c3ccc(F)cc3)c(-c3ccccc3F)nc2c1 [Compound I-313, 3-(2-fluorophenyl)-2-(4-fluorophenyl)-N-[3-(1H-imidazol-2-yl)propyl]quinoxaline-6-carboxamide] | 2% | 100 to 500 nM | 86% |
| O=C(NCCCc1ncc[nH]1)c1ccc2nc(OCC3CCCCC3)c(-c3ccc(F)cc3)nc2c1 [Compound I-314, 2-(cyclohexylmethoxy)-3-(4-fluorophenyl)-N-[3-(1H-imidazol-2-yl)propyl]quinoxaline-6-carboxamide] | 3% | < 100 nM | 91% |
| O=C(NCCCc1ncc[nH]1)c1ccc2nc(-c3ccc(Cl)cc3)c(-c3ccc(Cl)cc3)nc2c1 [Compound I-315, 2,3-bis(4-chlorophenyl)-N-[3-(1H-imidazol-2-yl)propyl]quinoxaline-6-carboxamide] | 1% | 100 to 500 nM | 88% |
| O=C(NCCCc1ncc[nH]1)c1ccc2nc(OCC3CC(F)(F)C3)c(-c3ccc(F)cc3)nc2c1 [Compound I-316, 2-[(3,3-difluorocyclobutyl)methoxy]-3-(4-fluorophenyl)-N-[3-(1H-imidazol-2-yl)propyl]quinoxaline-6-carboxamide] | 2% | < 100 nM | 98% |
| COc1cc(-c2nc3cc(C(=O)NCc4ccc5nccn5c4)ccc3nc2OC(C)C)c(F)cn1 [Compound I-317, 3-(5-fluoro-2-methoxypyridin-4-yl)-N-(imidazo[1,2-a]pyridin-6-ylmethyl)-2-isopropoxyquinoxaline-6-carboxamide] | 1% | 100 to 500 nM | 66% |
| O=C(NCCCc1ncc[nH]1)c1ccc2nc(OC3COC3)c(-c3ccc(Cl)cc3)nc2c1 [Compound I-318, 3-(4-chlorophenyl)-N-[3-(1H-imidazol-2-yl)propyl]-2-(oxetan-3-yloxy)quinoxaline-6-carboxamide] | 2% | < 100 nM | 97% |
| O=C(NCCCc1ncc[nH]1)c1ccc2nc(-c3ccc(F)cc3)c(-c3cc(F)ccc3F)nc2c1 [Compound I-319, 3-(2,5-difluorophenyl)-2-(4-fluorophenyl)-N-[3-(1H-imidazol-2-yl)propyl]quinoxaline-6-carboxamide] | 3% | < 100 nM | 94% |
| O=C(NCCCc1ncc[nH]1)c1ccc2nc(-c3ccc(F)cc3)c(-c3ccc4c(c3)OCCO4)nc2c1 [Compound I-320, 3-(2,3-dihydro-1,4-benzodioxin-6-yl)-2-(4-fluorophenyl)-N-[3-(1H-imidazol-2-yl)propyl]quinoxaline-6-carboxamide] | 3% | 500 to 1000 nM | 63% |
| Cn1cc(CCOc2nc3ccc(C(=O)NCCCc4ncc[nH]4)cc3nc2-c2ccc(F)cc2)cn1 [Compound I-321, 3-(4-fluorophenyl)-N-[3-(1H-imidazol-2-yl)propyl]-2-[2-(1-methyl-1H-pyrazol-4-yl)ethoxy]quinoxaline-6-carboxamide] | 2% | < 100 nM | > 99% |
| O=C(NCCCc1ncc[nH]1)c1ccc2nc(OCCO)c(-c3ccc(F)cc3)nc2c1 [Compound I-322, 3-(4-fluorophenyl)-2-(2-hydroxyethoxy)-N-[3-(1H-imidazol-2-yl)propyl]quinoxaline-6-carboxamide] | 2% | < 100 nM | 96% |
| O=C(NCCCc1ncc[nH]1)c1ccc2nc(OCC3CCCCO3)c(-c3ccc(F)cc3)nc2c1 (stereo not drawn) [Compound I-323, 3-(4-fluorophenyl)-N-[3-(1H-imidazol-2-yl)propyl]-2-(tetrahydro-2H-pyran-2-ylmethoxy)quinoxaline-6-carboxamide] | 3% | < 100 nM | 99% |
| O=C(NCCCc1ncc[nH]1)c1ccc2nc(-n3ccnc3)c(-c3ccc(F)cc3)nc2c1 [Compound I-324, 3-(4-fluorophenyl)-2-(1H-imidazol-1-yl)-N-[3-(1H-imidazol-2-yl)propyl]quinoxaline-6-carboxamide] | 3% | 500 to 1000 nM | 57% |
| O=C(NCCCc1ncc[nH]1)c1ccc2nc(-c3ccc(F)cc3)c(-c3cncs3)nc2c1 [Compound I-325, 2-(4-fluorophenyl)-N-[3-(1H-imidazol-2-yl)propyl]-3-(1,3-thiazol-5-yl)quinoxaline-6-carboxamide] | 4% | < 100 nM | > 99% |
| O=C(NCCCc1ncc[nH]1)c1ccc2nc(OCc3ccsc3)c(-c3ccc(F)cc3)nc2c1 [Compound I-326, 3-(4-fluorophenyl)-N-[3-(1H-imidazol-2-yl)propyl]-2-(3-thienylmethoxy)quinoxaline-6-carboxamide] | 3% | < 100 nM | 92% |
| CN1CCC(COc2nc3ccc(C(=O)NCCCc4ncc[nH]4)cc3nc2-c2ccc(F)cc2)CC1 [Compound I-327, 3-(4-fluorophenyl)-N-[3-(1H-imidazol-2-yl)propyl]-2-[(1-methylpiperidin-4-yl)methoxy]quinoxaline-6-carboxamide] | 2% | < 100 nM | > 99% |
| O=C(NCCCc1ncc[nH]1)c1ccc2nc(-c3ccc(F)cc3)c(-c3cccc(C(F)(F)F)c3)nc2c1 [Compound I-328, 2-(4-fluorophenyl)-N-[3-(1H-imidazol-2-yl)propyl]-3-[3-(trifluoromethyl)phenyl]quinoxaline-6-carboxamide] | 3% | 100 to 500 nM | 84% |
| O=C(NCCCc1ncc[nH]1)c1ccc2nc(OCC3CCC3)c(-c3ccc(F)cc3)nc2c1 [Compound I-329, 2-(cyclobutylmethoxy)-3-(4-fluorophenyl)-N-[3-(1H-imidazol-2-yl)propyl]quinoxaline-6-carboxamide] | 3% | < 100 nM | 95% |
| O=C(NCCCc1ncc[nH]1)c1ccc2nc(-n3nccn3)c(-c3ccc(F)cc3)nc2c1 [Compound I-330, N-(3-(1H-imidazol-2-yl)propyl)-3-(4-fluorophenyl)-2-(2H-1,2,3-triazol-2-yl)quinoxaline-6-carboxamide] | 3% | 100 to 500 nM | 79% |
| CNC1CC(Oc2nc3ccc(C(=O)NCCCc4ncc[nH]4)cc3nc2-c2ccc(F)cc2)C1 (stereo not drawn) [Compound I-331, 3-(4-fluorophenyl)-N-[3-(1H-imidazol-2-yl)propyl]-2-[3-(methylamino)cyclobutoxy]quinoxaline-6-carboxamide] | 2% | < 100 nM | > 99% |
| Cn1cc(COc2nc3ccc(C(=O)NCCCc4ncc[nH]4)cc3nc2-c2ccc(F)cc2)cn1 [Compound I-332, 3-(4-fluorophenyl)-N-[3-(1H-imidazol-2-yl)propyl]-2-[(1-methyl-1H-pyrazol-4-yl)methoxy]quinoxaline-6-carboxamide] | 34% | < 100 nM | > 99% |
| COc1cc(-c2nc3cc(C(=O)NCc4ccc5nccn5c4)ccc3nc2-c2ccc(F)cc2)c(F)cn1 [Compound I-333, 3-(5-fluoro-2-methoxypyridin-4-yl)-2-(4-fluorophenyl)-N-(imidazo[1,2-a]pyridin-6-ylmethyl)quinoxaline-6-carboxamide] | 0% | 100 to 500 nM | 63% |
